Experimental findings from patent US8119630B2 (Arrow Therapeutics Limited, priority 2002, dated 2012) are described below.

One data set deals with RSV. Briefly: XTT assay, RSV-infected Hep-2 cells. As to conditions: Table 2, Examples 75 to 82 and 125 to 184; Hep-2 cells infected with RSV, 6 days at 37° C. It counts as cell-based, Respiratory Syncytial Virus (RSV). In outline: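 Hep-2 cells (4×10^4/well) infected with RSV titrated for 80% cell kill and treated with 25 μM compound (0.5% DMSO) for 6 days at 37 °C. Viability read by XTT/PMS at OD450 after 1 h; uninfected control set as 100% and infected control as 0% inhibition, with IC50 from graph or regression.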
On the technique in general: Formazan colour is commonly taken as a measure of viable cells.

A further data set has as its system Hep-2 cells. Briefly: Toxicity studies (XTT), Hep-2 cells. The class given is cell-based. More on the design: TC50 (6d): unit not given beside the values. The settings on record: for TC50 (2d): Table 2, Examples 75 to 82 and 125 to 184, 2d; for TC50 (6d): Table 2, Examples 75 to 82 and 125 to 184, 6d, in µM.

As usually defined, the IC50 is the concentration at which inhibition is half-maximal. On to “Piperidine-1-carboxylic acid [5-(3-methoxy-phenyl)-2-oxo-5-phenyl-2,3-dihydro-1H-benzo[e][1,4]diazepin-3-yl]-amide [Example 166]”, for which it took 5 µM to reach half-maximal inhibition with RSV (IC50). Besides, in the data set with Hep-2 cells, the TC50 (2d) is over 100 µM and the “TC50 (6d)” value was over 100.
For “Piperidine-4-carboxylic acid [5-(3-methoxy-phenyl)-2-oxo-5-phenyl-2,3-dihydro-1H-benzo[e][1,4]diazepin-3-yl]-amide [Example 167]”, in that order: 9 µM, over 100 µM and over 100.
On to “Thiophene-2-carboxylic acid [5-(3-chloro-phenyl)-2-oxo-5-phenyl-2,3-dihydro-1H-benzo[e][1,4]diazepin-3-yl]-amide [Example 157]”, for which the midpoint of inhibition in the data set with RSV, the IC50, lay at 5 µM. In addition, in the data set on Hep-2 cells, the TC50 (2d) was over 100 µM and the “TC50 (6d)” value came out at 100.
For “Thiophene-2-carboxylic acid [5-(3-methoxy-phenyl)-2-oxo-5-phenyl-2,3-dihydro-1H-benzo[e][1,4]diazepin-3-yl]-amide [Example 164]”, in that order: 4 µM, 100 µM and 100.
